US4416877A, “Anti-atherosclerotic pharmaceutical compositions containing diphosphonate compounds” (priority 1979, dated 1983)
“Also recorded” adds a separate entry of the source. Counter-ions that a name gives are not always drawn. Like-named read-outs stand apart in the source and are kept apart here.

Legend:
lipid metabolism = assay: Effects of diphosphonates on lipid metabolism in normal rats (serum lipids, α/β cholesterol); type: in vivo, male Wistar rats; details: for change in vivo at 200 mg/kg/day: Rattus norvegicus, po; for increased HDL lipids, especially HDL cholesterol: normal rats
Method: Effects of diphosphonates of formula (I) on lipid metabolism in normal rats Groups of 4 to 5 normal male Wistar rats, weighing about 200 g were treated with diphosphonates (200 mg/kg/day) p.o. for 4 to 21 days. Water soluble compounds were given in solution in 24 mM bicarbonate buffer. Lipid soluble compounds were given in corn oil. The rats were weighed, sacrificed by decapitation (under light ether anesthesia) after overnight fasting. Blood was collected and serum used for analysis. The following blood parameters reflecting changes in lipid metabolism are reported: […]
free fatty acids measured according to W. G. Duncombe (Clin. Acta 9, 122, 1964) triglycerides enzymatic method (Boehringer Mannheim Kit 126 012) phospholipids: molybdate/vanadate reaction (Boehringer Mannheim Kit 124 974) β-lipoprotein cholesterol was measured after heparin, CaCl2 precipitation according to M. Burstein et al. (La Presse Medicale 43, 974, 1958) and to D. Watson (Clin. Chim. Acta 5, 637, 1960).
(§1) In above Table IV, results are given as % control values. Except for serum calcium, values which differ from control values by less than 15% are considered as non significant (NS).
Serum free fatty acids, triglycerides and phospholipids were measured in normal rats (N) and rats previously fed a cholesterol diet for 10 days (C.F.) Serum α/β cholesterol, total lipids and cholesterol of liver and aorta were determined in normal rats (N) and rats which had previously been fed on high cholesterol diet (C.F.)

tissue cholesterol = assay: Effects in cholesterol fed rats (serum, liver and aorta lipids); type: in vivo; details: for change in vivo at 200 mg/kg/day: Rattus norvegicus; for liver total lipids and/or liver cholesterol: cholesterol fed rats
Method: Effects of diphosphonates of formula (I) in cholesterol fed rats
In order to increase tissue cholesterol, especially liver, rats were fed a high fat-high cholesterol diet for 10 days to 3 months, with the following diet composition: casein 20%, butter 37%, cellulose 9.1%, dextrose 18,9%, cholesterol 4.5%, sodium cholate 1.8%, minerals 7.3%, vitamins 1%, choline 0.4%.
The rats were then fed normal food and were treated for 10 days to 3 months with different compounds (200 mg/kg/day). Serum parameters described above were measured. Liver and aorta lipids were extracted according to J. Folch et al (J. Biochem. 226, 497, 1957). Total lipids were determined by the sulfophosphovanillic reaction (see N. Zolner and K. Kirsch, Z. Ges. exp. Med. 135, 545, 1962) and cholesterol by the Liebermann-Burchard reaction or appropriate enzymatic reaction.
as §1
Serum free fatty acids, triglycerides and phospholipids were measured in normal rats (N) and rats previously fed a cholesterol diet for 10 days (C.F.)
Serum α/β cholesterol, total lipids and cholesterol of liver and aorta were determined in normal rats (N) and rats which had previously been fed on high cholesterol diet (C.F.)

serum calcium = assay: Effects of acid and salt form of diphosphonates in hypercalceamic rats; type: in vivo, male Wistar rats; details: for Serum Calcium (% control values): 15% NS limit does not apply; for decrease of serum calcium: about 50 mg/kg/day in drinking water, 15 days
Method: Effects of acid and salt form of diphosphonates of formula (I) in hypercalceamic rats
To verify this activity the acid form of compound 4 and is monosodium salt counterpart (compound 10) were also tested by using a protol similar to the one described by Potokar (see above). Briefly, groups of 4 male Wistar rats received acid or salt form of compound 4 as 0.05% solution in drinking water corresponding to about 50 mg/kg/day. The rats were treated with the compounds for 15 days.
Serum calcium was measured in hypercalceamic rats.

HDL cholesterol = details: rats; Day et al., Muller and Cortesi; cited from earlier work
[1] = tested on: alpha/beta cholesterol ratio; assay: Comparison of clofibrate, gemfibrozil and fenofibrate to compound 16: alpha/beta cholesterol ratio in normal Wistar rats; type: in vivo; details: 100 mg/kg for 10 days, n = 5
Method: It should be noted that these diphosphonate compounds are different and novel in comparison to the classical hypolipidemic compounds as illustrated in Table V. The diphosphonate ester used for comparison was the only one to increase the alpha/beta cholesterol ratio in control rats.
Each drug was administered at 100 mg/kg for 10 days

Oral LD50 toxicity = type: in vivo; details: in vivo; oral
Text: Following the extensive pharmacological screening of these compounds, using over 2000 animals, those showing the most potential were then subjected to toxicity testing for further selection relative to their activity/toxicity risk profiles
By way of LD50 (Lethal Dose 50) the methyl diphosphonates were discovered to have a significant lower degree of toxicity. […] This represents a significant six fold difference in toxicity.

[2] = tested on: aorta and kidney calcification; details: hypercalceamic animal model; cited from earlier work
[3] = normal rats (N), 200 mg/kg/day p.o., read-out: Serum Chol. α/β (% control values)
[4] = normal rats (N), 200 mg/kg/day p.o., read-out: Serum Phospholipids (% control values)
[5] = normal rats (N), 200 mg/kg/day p.o., 200 mg/kg/day
[6] = cholesterol fed rats (C.F), 200 mg/kg/day, read-out: Liver Chol. (% control values)
[7] = cholesterol fed rats (C.F), 200 mg/kg/day, read-out: Liver Total Lipids (% control values)
[8] = cholesterol fed rats (C.F), 200 mg/kg/day
[9] = normal rats (N), 200 mg/kg/day p.o., read-out: Serum Free Fatty Acids (% control values)
[10] = normal rats (N), 200 mg/kg/day p.o., read-out: Serum Triglycerides (% control values)
[11] = normal rats (N), 200 mg/kg/day p.o., monosodium salt, 200 mg/kg/day
[12] = normal rats (N), 200 mg/kg/day p.o.

| SMILES | change in vivo at 200 mg/kg/day (lipid metabolism; [3]) [%] | change in vivo at 200 mg/kg/day (lipid metabolism; [4]) [%] | decreases in serum triglycerides (lipid metabolism; rats) | change in vivo at 200 mg/kg/day (tissue cholesterol; [6]) [%] | change in vivo at 200 mg/kg/day (tissue cholesterol; [7]) [%] | change in vivo at 200 mg/kg/day (lipid metabolism; [9]) [%] | change in vivo at 200 mg/kg/day (lipid metabolism; [10]) [%] | liver total lipids and/or liver cholesterol (tissue cholesterol) | Serum Chol. α/β (% control values) (tissue cholesterol; [8]) | further results |
| --- | --- | --- | --- | --- | --- | --- | --- | --- | --- | --- |
| O=P(O)(O)C(O)(c1ccc(Cl)cc1)P(=O)(O)O [4 Acid, hydroxy (p-chlorophenyl) methylenediphosphonic acid] | < 15 | < 15 | Significant decreases | < 15 | < 15 |  |  |  |  | Serum Free Fatty Acids (% control values) (lipid metabolism; [5]): -17%; Serum Triglycerides (% control values) (lipid metabolism; [5]): -29%; property to change lipid metabolism / increase HDL (lipid metabolism; rats): do not have these properties; Aorta Chol. (% control values) (tissue cholesterol; [8]): NS (Except for serum calcium, values which differ from control values by less than 15% are considered as non significant (NS)); Aorta Total Lipids (% control values) (tissue cholesterol; [8]): NS (Except for serum calcium, values which differ from control values by less than 15% are considered as non significant (NS)); Serum Calcium (% control values) (serum calcium): -20%; decrease of serum calcium (serum calcium; listed as acid form of compound 4): 20% |
| CCOC(=O)C(C)(C)Oc1ccc(Cl)cc1 [Clofibrate, reference compound] | < 15 | -34 |  | < 15 |  | < 15 | 19 |  |  | decrease of plasma phospholipids (lipid metabolism; rats, comparison): 33.6%; decrease of α/β ratio (lipid metabolism; rats, comparison): 52.2%; HDL cholesterol (HDL cholesterol): decreases HDL cholesterol; alpha/beta Cholesterol Ratio [1]: 2.76 ± 0.40 |
| COP(=O)(OC)C(O)(c1ccc(C(=O)c2ccc(Cl)cc2)cc1)P(=O)(OC)OC [Compound 9, Tetramethyl 1[4(4'-chlorobenzoyl)-phenyl]methane 1-hydroxy 1,1-diphosphonate] |  | < 15 | Significant decreases | < 15 | -25 | -38 | -16 | decreased significantly | +51% | increased HDL lipids, especially HDL cholesterol (lipid metabolism): observed most dramatically; α-cholesterol/β-cholesterol ratio / lipoprotein cholesterol (lipid metabolism; rats): highly significant activity; Aorta Chol. (% control values) (tissue cholesterol; [8]): -39%; Aorta Total Lipids (% control values) (tissue cholesterol; [8]): NS (Except for serum calcium, values which differ from control values by less than 15% are considered as non significant (NS)); Serum Free Fatty Acids (% control values) (tissue cholesterol; [8]): -52%; Serum Phospholipids (% control values) (tissue cholesterol; [8]): +36%; Serum Triglycerides (% control values) (tissue cholesterol; [8]): -17% |
| O=P(O)(O)C(O)(c1ccc(Cl)cc1)P(=O)(O)O [Compound 10, 1-hydroxy 1 (p-chlorophenyl)methane 1,1-diphosphonic acid, monosodium salt] |  |  |  |  |  |  |  |  |  | Serum Free Fatty Acids (% control values) (lipid metabolism; [11]): -27%; Serum Triglycerides (% control values) (lipid metabolism; [11]): -17%; Serum Calcium (% control values) (serum calcium; monosodium salt): -14%; decrease of serum calcium (serum calcium; listed as salt form of compound 4, monosodium salt): 14% |
| COP(=O)(OC)OC(c1ccccc1)P(=O)(OC)OC (stereo not drawn) [Compound 13, dimethyl α(dimethoxyphosphinyl) benzylphosphate] |  |  |  |  |  |  |  | decreased significantly | +25% | Serum Free Fatty Acids (% control values) (lipid metabolism; [12]): -21%; Serum Phospholipids (% control values) (lipid metabolism; [12]): +21%; Serum Triglycerides (% control values) (lipid metabolism; [12]): +32%; increase in serum phospholipid (lipid metabolism; rats): found to increase; Liver Chol. (% control values) (tissue cholesterol; [8]): -51%; Liver Total Lipids (% control values) (tissue cholesterol; [8]): -18% |
| COP(=O)(OC)OC(c1ccc(C)cc1)P(=O)(OC)OC (stereo not shown) [Compound 18] | < 15 | < 15 |  |  | < 15 |  | -33 |  |  |  |
| COP(=O)(OC)OC(C(C)(C)c1ccc(Cl)cc1)P(=O)(OC)OC (stereo not shown) [Compound 21, Dimethyl 1-(dimethoxyphosphinyl) 2,2-dimethyl 2(p-chlorophenyl) ethylphosphate] | < 15 | 16 | Significant decreases | -46 | -36 |  | -38 | decreased significantly | -32% | increase in serum phospholipid (lipid metabolism; rats): found to increase; Serum Phospholipids (% control values) (tissue cholesterol; [8]): +24%; Serum Triglycerides (% control values) (tissue cholesterol; [8]): +28% |
| CCOP(=O)(OCC)OC(c1ccc(Cl)cc1)P(=O)(OCC)OCC (stereo not shown) [Compound 24] | < 15 | < 15 |  |  |  |  | < 15 |  |  | LD50 (Oral LD50 toxicity): 547 mg/kg |
| CCOP(=O)(OCC)C(Cc1ccc(Cl)cc1)P(=O)(OCC)OCC [Compound 27] |  | < 15 | Significant decreases | < 15 | < 15 | -44 | -16 | decreased significantly | -35% | Aorta Chol. (% control values) (tissue cholesterol; [8]): NS (Except for serum calcium, values which differ from control values by less than 15% are considered as non significant (NS)); Aorta Total Lipids (% control values) (tissue cholesterol; [8]): -60%; Serum Free Fatty Acids (% control values) (tissue cholesterol; [8]): -65%; Serum Phospholipids (% control values) (tissue cholesterol; [8]): NS (Except for serum calcium, values which differ from control values by less than 15% are considered as non significant (NS)); Serum Triglycerides (% control values) (tissue cholesterol; [8]): -24% |
| COP(=O)(OC)C(Cc1ccc(Cl)cc1)P(=O)(OC)OC [Compound 35] | 75 | 51 |  | -19 | < 15 | -44 | < 15 | decreased significantly |  | increased HDL lipids, especially HDL cholesterol (lipid metabolism): observed most dramatically; increase in serum phospholipid (lipid metabolism; rats): found to increase; also recorded: at least two fold the most active; α-cholesterol/β-cholesterol ratio / lipoprotein cholesterol (lipid metabolism; rats): highly significant activity |
| CC(C)OC(=O)C(C)(C)Oc1ccc(C(=O)c2ccc(Cl)cc2)cc1 [Fenofibrate] |  |  |  |  |  |  |  |  |  | alpha/beta Cholesterol Ratio [1]: 1.19 ± 0.20 |
| Cc1ccc(C)c(OCCCC(C)(C)C(=O)O)c1 [Gemfibrozil] |  |  |  |  |  |  |  |  |  | alpha/beta Cholesterol Ratio [1]: 5.33 ± 0.31 |
| O=P(O)(O)C(Cl)(Cl)P(=O)(O)O [dichloromethylene diphosphonate] |  |  |  |  |  |  |  |  |  | aorta and kidney calcification [2]: inhibit aorta and kidney calcification; vitamin D-induced rise in plasma calcium [2]: prevent the vitamin D-induced rise in plasma calcium |
